{"source": "patent US20190390220A1", "about": "“Compositions and Methods of Increasing Aphid Resistance in Transgenic Plants” (Boyce Thompson Institute, priority 2018, published 2019)", "key": {"A. glycines": {"test_system": "A. glycines", "test": "flavonoid in vitro feeding bioassay on artificial diet, soybean aphid", "type": "in vivo, Aphis glycines", "conditions": "artificial diet with 0.01% apigenin; compared with control diet (DMSO); adults", "description": "(§1) A pea aphid colony (A. pisum strain CWR09/18, kindly supplied by Angela Douglas, Cornell University) was reared on faba bean plants (Viciafaba, var. Windsor; Johnny's Selected Seeds, Winslow, Me., USA) which were grown in Metromix 200 (Scotts, Marysville, Ohio, USA) in a growth chamber at the same condition with soybeans in insect rearing room at 25° C. with a 12:12 h day:night cycle (64). A soybean aphid colony (A. glycines), kindly supplied by Gustavo Macintosh at Iowa State University, was reared on soybean plants (G. max var. William 82) that were grown in same soil and conditions as described for the pea aphid colony.\n(§2) For flavonoid in vitro feeding bioassays, the effects of three isoflavones, daidzein, formononetin and prunetin, as well as two flavones, apigenin and kaempferol on A. glycines and A. pisum adults were tested by rearing 30 insects on an artificial diet (65) in membrane feeding tubes. Adults were fed an artificial diet containing one of the following treatments, 0.01% apigenin, 0.2% daidzein, 0.01% prunetin, 0.04% formononetin or 0.02% kaempferol for 6 days in an insect rearing room (25° C. with a 12:12 h day:night cycle). […] The compound concentrations for diet experiments were based on their measured concentrations in soybean leaves. After 6 days of feeding, the number of surviving aphids was counted."}, "A. pisum": {"test_system": "A. pisum", "test": "flavonoid in vitro feeding bioassay on artificial diet, pea aphid", "type": "in vivo, Acyrthosiphon pisum", "conditions": "artificial diet with 0.2% daidzein, 0.01% prunetin or 0.04% formononetin; compared with control diet (DMSO) or flavones; adults", "description": "as §1, §2"}, "Trichoplusia ni": {"test_system": "Trichoplusia ni", "conditions": "constitutively produced in soybean PI 227697 leaves; cited from earlier work"}, "Anticarsia gemmatalis": {"test_system": "Anticarsia gemmatalis", "conditions": "constitutively produced in soybean PI 227697 leaves; cited from earlier work"}}, "data": [{"smiles": "O=c1cc(-c2ccc(O)cc2)oc2cc(O)cc(O)c12", "note": "[apigenin]", "values": [{"measurement": "mortality of SBA", "setting": "A. glycines", "result": "increased"}]}, {"smiles": "O=c1c(-c2ccc(O)cc2)coc2cc(O)ccc12", "note": "[daidzein]", "values": [{"measurement": "mortality of PA", "setting": "A. pisum", "result": "higher mortality"}]}, {"smiles": "O=c1c(-c2ccc(O)cc2)coc2cc(O[C@@H]3O[C@H](CO)[C@@H](O)[C@H](O)[C@H]3O)cc(O)c12", "note": "[genistin]", "values": [{"measurement": "performance of Trichoplusia ni larvae", "setting": "Trichoplusia ni", "result": "negatively affect the performance"}, {"measurement": "performance of Anticarsia gemmatalis larvae", "setting": "Anticarsia gemmatalis", "result": "negatively affect the performance"}]}, {"smiles": "COc1cc(O)c2c(=O)c(-c3ccc(O)cc3)coc2c1", "note": "[prunetin]", "values": [{"measurement": "mortality of PA", "setting": "A. pisum", "result": "higher mortality"}]}]}
